Source: US6696468B2, “(S)-4-AMINO-5-CHLORO-2-METHOXY-N-[1-[1-(2-TETRAHYDROFURYL-CARBONYL)-4-[…]]-4-[…]]BENZAMIDE, PROCESS FOR THE PREPARATION THEREOF, PHARMACEUTICAL COMPOSITION CONTAINING THE SAME, AND INTERMEDIATE THEREFOR” (priority 2002, dated 2004)
Structures can show the parent of a compound that is named as a salt.

What was measured:
mice of Std-ddY strain = assay: Assay on defecation in mice; type: in vivo; design: key: −: Inactive; +: Moderately stimulated (P < 0.05); ++: Markedly stimulated (p < 0.01); details: fecal pellet weight vs control, Dunnett's test
Procedure: Male mice of Std-ddY strain weighing 25-30 g were used. Free access to food and water was allowed up to the beginning of the procedure. The mice (each group: five mice) were placed in a mesh bottom cage for fasting, and they were allowed for acclimation to the new environment for about one hour prior to the start of the experiment. A test compound, which was previously suspended in a 0.5% tragacanth solution, was administered orally to the mice. The fecal pellets were collected at 30, 60 and 120 minutes after the treatment of a test compound, and weighed. The statistical judgment of efficacy was carried out between the control group (treated with a 0.5% tragacanth solution) and the test compound-treated group, and determined by Dunnett's test.

colon of Beagle dogs = assay: Gastrointestinal motility activity in conscious dog; type: in vivo; details: within 2 hours after administration
From the text: Beagle dogs of a male were anesthetized with pentobarbital, and the abdominal cavity was opened, and force transducers (F-121S; manufactured by Star Medical Inc.) were sutured onto the seromuscular layer of the colon to make it possible to measure circular muscle contractions. Three or four force transducer were sutured onto in the colon from the lower part to the upper part at regular intervals. The lead wires from the transducers were brought out outside the body through a skin incision made between the scapulae, and were protected in a package of a jacket protector. The gastrointestinal motility activity was measured 2 or 3 weeks after the operation. The lead wires from the force transducers were connected with a telemeter system (DAS-800T: manufactured by Star Medical Inc.), and the gastrointestinal motility activity was analyzed by a personal computer system being connected therewith and recorded. A test compound was suspended in a 0.5% tragacanth solution, and administered via a cannula to be placed in the stomach to the dogs, which were one hour or more after feeding. The measurement was continued for 2 hours after the administration of test compounds.
The number of dogs showing Giant Migrating Contraction (GMC) and defecation within 2 hours after the administration of a test compound is indicated in Table 4.

[1] = tested on: guinea pigs of Std-Hartley strain; assay: Effect on electrocardiogram in guinea pigs (QTc); type: in vivo, guinea pig; details: anesthetized guinea pigs, iv infusion for 15 minutes, maximum dose 30 mg/kg
Procedure: Male guinea pigs of Std-Hartley strain weighing 350-500 g were anesthetized with urethan (1.5 g/kg, ip). […] RR (second): time from the peak of R-wave to the peak of the next R-wave in electrocardiogram (usually, expressed by “second”). […] Consequently, as an index for evaluating the effects on the heart, a dose to be required to prolong the QTc intervals by 5% of the electrocardiogram (ED5%) in guinea pigs was measured, which has widely been used.

[2] = biological target: T1, Serotonin 4 (5-HT4) receptor (Cavia porcellus, UniProt O70528); assay: Serotonin 4 (5-HT4) receptor binding assay ([3H]-GR113808); details: guinea pig striatum membrane fractions, 0.1 nM [3H]-GR113808
T1 construct: from tissue; host or cells: guinea pig (Std-Hartley) brain striatum membrane fraction
From the text: Std-Hartley guinea pigs weighing 300-400 g were decapitated, and the brain thereof was immediately taken out, and the striatum was dissected.
Prior to the filtration, the filter to be used was presoaked in a 0.1% solution of polyethylenimine for one hour.

Dopamine D2 receptor = biological target: T2, Dopamine D2 receptor (Rattus norvegicus, UniProt P61169); assay: Dopamine D2 receptor binding assay ([3H]spiperone); details: rat brain crude synaptosome membrane fractions
T2 construct: Crude synaptosome membrane fractions from rat brain was used as a receptor membrane fraction; from tissue; host or cells: rat brain crude synaptosome membrane fraction
Procedure: Dopamine D2 receptor binding assay and the preparation of receptor membrane fractions therefor were carried out according to a modified method of the method of Creese, I. et al., Eur. J. Pharmacol., 46, 337 (1977) and Peroutka, S. J. and Hamik, A., Eur. J. Pharmacol., 148, 297 (1988).
Crude synaptosome membrane fractions from rat brain was used as a receptor membrane fraction, and [^3H]spiperone (D2) was used as a labeled ligand. A buffer (final volume: 1 ml) containing a receptor membrane fraction and a labelled ligand therefor was incubated for a prescribed period in the presence of a test compound in various concentrations, and the radioactive ligand binding to the receptor was separated on the filter paper using a cell harvester (manufactured by Brandel). The radioactivity on the filter was determined by a liquid scintillation counter, and the total binding of the ligand to the receptor was determined. On the other hand, the non-specific binding was determined in the presence of an excess amount of non-labeled ligand (spiperone (D2)), and the specific binding was obtained by subtracting the non-specific binding from the total binding.

Acute toxicity = details: male, Std-ddY, mouse, in vivo; mice, intravenous, observed for 7 days
From the text: Male mice of Std-ddY strain weighing 25-30 g were used in a group of 5 or more animals. A test compound was suspended in physiological saline solution or a 1% lactose solution and administered intravenously to the mice.

T2 sequence (P61169 whole entry): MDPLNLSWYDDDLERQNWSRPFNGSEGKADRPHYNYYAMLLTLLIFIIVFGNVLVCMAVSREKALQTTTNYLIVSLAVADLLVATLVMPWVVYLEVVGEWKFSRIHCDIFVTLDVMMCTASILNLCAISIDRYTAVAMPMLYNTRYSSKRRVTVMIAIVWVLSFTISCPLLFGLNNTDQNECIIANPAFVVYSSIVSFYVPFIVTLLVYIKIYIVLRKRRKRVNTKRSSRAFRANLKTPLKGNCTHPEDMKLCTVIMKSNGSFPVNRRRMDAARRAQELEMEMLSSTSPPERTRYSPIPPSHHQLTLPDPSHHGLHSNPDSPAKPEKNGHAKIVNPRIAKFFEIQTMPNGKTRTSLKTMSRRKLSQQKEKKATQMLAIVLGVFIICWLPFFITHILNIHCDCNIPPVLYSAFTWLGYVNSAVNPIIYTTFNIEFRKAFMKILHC
T1 sequence (O70528 whole entry): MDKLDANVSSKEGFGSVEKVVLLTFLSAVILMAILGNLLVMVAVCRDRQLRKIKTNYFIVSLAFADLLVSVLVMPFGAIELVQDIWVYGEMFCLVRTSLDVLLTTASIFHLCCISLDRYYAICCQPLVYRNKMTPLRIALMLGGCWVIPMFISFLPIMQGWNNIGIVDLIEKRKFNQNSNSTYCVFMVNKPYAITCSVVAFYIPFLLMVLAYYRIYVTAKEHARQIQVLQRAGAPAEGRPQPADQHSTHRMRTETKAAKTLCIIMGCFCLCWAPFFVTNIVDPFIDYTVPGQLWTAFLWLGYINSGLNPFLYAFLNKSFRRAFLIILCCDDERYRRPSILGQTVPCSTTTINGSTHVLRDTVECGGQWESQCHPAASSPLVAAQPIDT

Structure (SMILES) | Effect (defecation in mice) (mice of Std-ddY strain; 3.0 mg/kg oral) | ED5%, iv (dose required to prolong the QTc intervals by 5%) [1] [mg/kg] | Effect (defecation in mice) (mice of Std-ddY strain; 1.0 mg/kg oral) | other results
COc1cc(N)c(Cl)cc1C(=O)NC1CCN(CC2CCN(C(=O)C3CCOCC3)CC2)CC1 (as salt: fumarate) (hydrate or solvate) [Compound A, 4-amino-5-chloro-2-methoxy-N-[1-[1-(4-tetrahydropyranylcarbonyl)-4-piperidinylmethyl]-4-piperidinyl]benzamide.fumarate.1/4 hydrate] |  |  |  | melting point: 235 to 237 °C
COc1cc(N)c(Cl)cc1C(=O)NC1CCN(CC2CCN(C(=O)c3ccco3)CC2)CC1 (as salt: fumarate) (hydrate or solvate) [Compound B, 4-amino-5-chloro-N-[1-[1-(2-furoyl)-4-piperidinyl-methyl]-4-piperidinyl]-2-methoxybenzamide.fumarate.1/2 hydrate] |  |  |  | melting point: 179 to 181 °C
COc1cc(N)c(Cl)cc1C(=O)N[C@H]1CCN(CCCOc2ccc(F)cc2)C[C@H]1OC (relative stereo) [Cisapride, cis-4-amino-5-chloro-N-[1-[3-(4-fluorophenoxy)propyl]-3-methoxy-4-piperidinyl]-2-methoxybenzamide] | − | 0.3 |  | Effect (defecation in mice) (mice of Std-ddY strain; 30 mg/kg oral): −; Number of dogs which showed defecation/total number of dogs to be tested (colon of Beagle dogs; 10 mg/kg intragastric): 1/7; Number to dogs which showed GMC/total number of dogs to be tested (colon of Beagle dogs; 10 mg/kg intragastric): 1/7
COc1cc(N)c(Cl)cc1C(=O)NC1CCN(CC2CCN(C(=O)[C@@H]3CCCO3)CC2)CC1 [Compound 2, (S)-4-amino-5-chloro-2-methoxy-N-[1-[1-(2-tetrahydrofurylcarbonyl)-4-piperidinylmethyl]-4-piperidinyl]benzamide.fumarate] | ++ | 24.9 | ++ | IC50 [2]: 13.5 nM; IC50 (Dopamine D2 receptor): > 10000 nM; Number of dogs which showed defecation/total number of dogs to be tested (colon of Beagle dogs; 0.03 mg/kg intragastric): 1/4; Number to dogs which showed GMC/total number of dogs to be tested (colon of Beagle dogs; 0.03 mg/kg intragastric): 1/4; Number of dogs which showed defecation/total number of dogs to be tested (colon of Beagle dogs; 0.1 mg/kg intragastric): 2/5; Number to dogs which showed GMC/total number of dogs to be tested (colon of Beagle dogs; 0.1 mg/kg intragastric): 3/5; Number of dogs which showed defecation/total number of dogs to be tested (colon of Beagle dogs; 0.3 mg/kg intragastric): 3/5; Number to dogs which showed GMC/total number of dogs to be tested (colon of Beagle dogs; 0.3 mg/kg intragastric): 4/5; LD50 at 7 days (Acute toxicity): > 200 mg/kg
COc1cc(N)c(Cl)cc1C(=O)NC1CCN(CC2CCN(C(=O)C3CCOCC3)CC2)CC1 [Compound A, 4-amino-5-chloro-2-methoxy-N-[1-[1-(4-tetrahydropyranylcarbonyl)-4-piperidinylmethyl]-4-piperidinyl]benzamide.fumarate.1/4 hydrate] | − | 16.9 | − | Effect (defecation in mice) (mice of Std-ddY strain; 10 mg/kg oral): ++
COc1cc(N)c(Cl)cc1C(=O)NC1CCN(CC2CCN(C(=O)c3ccco3)CC2)CC1 [Compound B, 4-amino-5-chloro-N-[1-[1-(2-furoyl)-4-piperidinyl-methyl]-4-piperidinyl]-2-methoxybenzamide.fumarate.1/2 hydrate] | + | 3.2 | + | Effect (defecation in mice) (mice of Std-ddY strain; 10 mg/kg oral): ++
COc1cc(N)c(Cl)cc1C(=O)NC1CCN(CC2CCN(C(=O)C3CCOC3)CC2)CC1.O=C(O)/C=C/C(=O)O (stereo not shown) [Compound C, 4-amino-5-chloro-2-methoxy-N-[1-[1-(3-tetrahydrofurylcarbonyl)-4-piperidinyl-methyl]-4-piperidinyl]benzamide.fumarate] | ++ | 9.4 | + | 
COc1cc(N)c(Cl)cc1C(=O)NC1CCN(CC2CCN(C(=O)[C@H]3CCCO3)CC2)CC1 [Compound R, (R)-4-amino-5-chloro-2-methoxy-N-[1-[1-(2-tetrahydrofurylcarbonyl)-4-piperidinyl-methyl]-4-piperidinyl]benzamide.fumarate] | ++ | 17.4 | ++ | IC50 (Dopamine D2 receptor): 948 nM
